Where a name gives a salt, the structure may show the parent alone.
target: T1, human cloned 5-HT6 receptors (Homo sapiens, UniProt P50406); assay: Cyclase assay (cAMP production in membranes of HeLa 5HT6 cells, 5-HT stimulated); format: biochemical; conditions: 5-HT at 4xEC50, functional Ki by Cheng-Prusoff, read-out: pKi values (converted)
T1 construct: expressed in transfected cells; host or cells: HeLa cells expressing cloned human 5-HT6 receptor (membranes)
Method: 0.5 μl of test compound in 100% dimethylsulfoxide (DMSO) was added to a white, solid 384 well assay plate (for dose response measurements the top of the concentration range is 7.5 μM final). 10 μl of washed membranes of HeLa 5HT6 cells (for preparation see WO 98/27081) in basic buffer (50 mM HEPES pH 7.4 (KOH), 10 mM MgCl2, 100 mM NaCl, 10 μM 3-isobutyl-1-methylxanthine (IBMX) (Sigma-Aldrich)) was added to all wells followed by 10 μl 2×ATP buffer (i.e. basic buffer containing 3 mM ATP) with 5-HT (at a concentration equivalent to a dose response of 4×EC50). The resultant mixture was then incubated at room temperature for 30-45 minutes to allow cAMP production. cAMP production was then measured using the DiscoveRX™ HitHunter™ chemiluminescence cAMP assay kit (DiscoveRx Corporation, 42501 Albrae Street, Fremont, Calif. 94538; Product Code: 90-0004L) or any other suitable cAMP measurement assay.
IC50 values were estimated from arbitrary designated unit (ADU) measurements from a Perkin Elmer Viewlux instrument using a four parameter logistic curve fit within EXCEL (Bowen, W. P. and Jerman, J. C. (1995), Nonlinear regression using spreadsheets. Trends in Pharmacol. Sci., 16, 413-417). Functional Ki values were calculated using the method of Cheng, Y. C. and Prussof, W. H. (Biochemical Pharmacol (1973) 22 3099-3108). plC50 and fpKi are the negative log 10 of the molar IC50 and functional Ki respectively.

T1 sequence (P50406 whole entry): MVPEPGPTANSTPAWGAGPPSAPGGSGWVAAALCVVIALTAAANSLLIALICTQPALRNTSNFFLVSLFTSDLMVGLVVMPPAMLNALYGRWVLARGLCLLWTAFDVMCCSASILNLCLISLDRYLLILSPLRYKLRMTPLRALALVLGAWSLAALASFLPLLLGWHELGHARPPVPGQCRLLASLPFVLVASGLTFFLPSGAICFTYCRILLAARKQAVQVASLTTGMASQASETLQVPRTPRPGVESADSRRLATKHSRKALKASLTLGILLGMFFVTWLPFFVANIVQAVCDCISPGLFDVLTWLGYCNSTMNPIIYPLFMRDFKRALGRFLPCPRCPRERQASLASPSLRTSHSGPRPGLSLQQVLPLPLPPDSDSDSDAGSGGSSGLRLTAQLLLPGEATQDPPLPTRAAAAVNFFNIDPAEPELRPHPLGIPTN

Structure (SMILES)	Ki
O=S(=O)(c1ccccc1)c1ccc2c(ccn2C2CCNCC2)c1 [Example E1, 5-(Phenylsulfonyl)-1-(4-piperidinyl)-1H-indole hydrochloride]	≤ 10 nM
CN1CCC(n2ccc3cc(S(=O)(=O)c4ccccc4)ccc32)CC1 [Example E2, 1-(1-Methyl-4-piperidinyl)-5-(phenylsulfonyl)-1H-indole hydrochloride]	≤ 10 nM
O=S(=O)(c1ccccc1)c1ccc2c(c1)CCN2C1CCNCC1 [Example E3a, 5-(Phenylsulfonyl)-1-(4-piperidinyl)-2,3-dihydro-1H-indole hydrochloride]	≤ 10 nM
CN1CCC(N2CC(C)(C)c3cc(S(=O)(=O)c4ccccc4)ccc32)CC1 [Example E5, 3,3-Dimethyl-1-(1-methyl-4-piperidinyl)-5-(phenylsulfonyl)-2,3-dihydro-1H-indole hydrochloride]	< 316 nM
O=S(=O)(c1cccc(F)c1)c1ccc2c(c1)CCN2C1CCNCC1 [Example E8, 5-[(3-Fluorophenyl)sulfonyl]-1-(4-piperidinyl)-2,3-dihydro-1H-indole hydrochloride]	≤ 10 nM
O=S(=O)(c1ccc2c(c1)CCN2C1CCNCC1)c1ccccc1Cl [Example E12, 5-[(2-Chlorophenyl)sulfonyl]-1-(4-piperidinyl)-2,3-dihydro-1H-indole hydrochloride]	≤ 10 nM
O=S(=O)(c1ccc2c(ccn2C2CCNCC2)c1)c1ccccc1F [Example E14, 5-[(2-fluorophenyl)sulfonyl]-1-(4-piperidinyl)-1H-indole hydrochloride]	≤ 10 nM
O=S(=O)(c1ccc(F)cc1)c1ccc2c(c1)CCN2C1CCNCC1 [Example E15a, 5-[(4-Fluorophenyl)sulfonyl]-1-(4-piperidinyl)-2,3-dihydro-1H-indole hydrochloride]	≤ 10 nM
O=S(=O)(c1ccccc1)c1ccc2c(c1)CCN2C1CCNC1 (centres unmarked) [Example E17a, 5-(Phenylsulfonyl)-1-(3-pyrrolidinyl)-2,3-dihydro-1H-indole]	≤ 10 nM
O=S(=O)(c1ccccc1)c1cc(F)c2c(c1)CCN2C1CCNCC1 [Example E18a, 7-Fluoro-5-(phenylsulfonyl)-1-(4-piperidinyl)-2,3-dihydro-1H-indole hydrochloride]	≤ 10 nM
O=S(=O)(c1ccccc1)c1cc(Cl)c2c(c1)CCN2C1CCNCC1 [Example E19a, 7-Chloro-5-(phenylsulfonyl)-1-(4-piperidinyl)-2,3-dihydro-1H-indole hydrochloride]	≤ 10 nM
N#Cc1ccccc1S(=O)(=O)c1ccc2c(c1)CCN2C1CCNCC1 [Example E20, 2-{[1-(4-Piperidinyl)-2,3-dihydro-1H-indol-5-yl]sulfonyl}-benzonitrile hydrochloride]	≤ 10 nM
N#Cc1cccc(S(=O)(=O)c2ccc3c(c2)CCN3C2CCNCC2)c1 [Example E21, 3-{[1-(4-Piperidinyl)-2,3-dihydro-1H-indol-5-yl]sulfonyl}benzonitrile hydrochloride]	≤ 10 nM
O=S(=O)(c1cccc(F)c1)c1ccc2c(ccn2C2CCNCC2)c1 [Example E22, 5-[(3-Fluorophenyl)sulfonyl]-1-(4-piperidinyl)-1H-indole hydrochloride]	≤ 10 nM
O=S(=O)(c1cccc(Cl)c1)c1ccc2c(c1)CCN2C1CCNCC1 [Example E24, 5-[(3-Chlorophenyl)sulfonyl]-1-(4-piperidinyl)-2,3-dihydro-1H-indole hydrochloride]	≤ 10 nM
O=S(=O)(c1ccc(F)c(F)c1)c1ccc2c(c1)CCN2C1CCNCC1 [Example E25, 5-[(3,4-Difluorophenyl)sulfonyl]-1-(4-piperidinyl)-2,3-dihydro-1H-indole hydrochloride]	≤ 10 nM
Cc1nc(C)c(S(=O)(=O)c2ccc3c(c2)CCN3C2CCNCC2)s1 [Example E28, 5-[(2,4-Dimethyl-1,3-thiazol-5-yl)sulfonyl]-1-(4-piperidinyl)-2,3-dihydro-1H-indole hydrochloride]	≤ 10 nM
Cc1nn(C)c(C)c1S(=O)(=O)c1ccc2c(c1)CCN2C1CCNCC1 [Example E29, 1-(4-Piperidinyl)-5-[(1,3,5-trimethyl-1H-pyrazol-4-yl)sulfonyl]-2,3-dihydro-1H-indole hydrochloride]	< 316 nM
CN1CCC(N2CCc3cc(S(=O)(=O)c4ccccc4)ccc32)C1 (centres unmarked) [Example E30, 1-(1-Methyl-3-pyrrolidinyl)-5-(phenylsulfonyl)-2,3-dihydro-1H-indole hydrochloride]	≤ 10 nM
CN1CCCC(N2CCc3cc(S(=O)(=O)c4ccccc4)ccc32)CC1 (centres unmarked) [Example E31, 1-(1-Methylhexahydro-1H-azepin-4-yl)-5-(phenylsulfonyl)-2,3-dihydro-1H-indole hydrochloride]	≤ 10 nM
CN1CCC(N2CCc3cc(S(=O)(=O)c4ccccc4)cc(Cl)c32)CC1 [Example E32, 7-Chloro-1-(1-methyl-4-piperidinyl)-5-(phenylsulfonyl)-2,3-dihydro-1H-indole hydrochloride]	≤ 10 nM
CCCN1CCC(N2CCc3cc(S(=O)(=O)c4cc(F)cc(F)c4)ccc32)CC1 [Example E34, 5-[(3,5-Difluorophenyl)sulfonyl]-1-(1-propyl-4-piperidinyl)-2,3-dihydro-1H-indole hydrochloride]	≤ 10 nM
CCN1CCC(n2ccc3cc(S(=O)(=O)c4cc(F)cc(F)c4)ccc32)CC1 [Example E35, 1-(1-Ethyl-4-piperidinyl)-5-[(3,5-difluorophenyl)sulfonyl]-1H-indole hydrochloride]	≤ 10 nM
CC(C)(C)CN1CCC(N2CCc3cc(S(=O)(=O)c4ccccc4)ccc32)CC1 [Example E38, 1-[1-(2,2-dimethylpropyl)-4-piperidinyl]-5-(phenylsulfonyl)-2,3-dihydro 1H-indole]	< 316 nM

More lines, now with the values ahead:

Ki	Structure (SMILES)
≤ 10 nM	CN1CCC(N2CCc3cc(S(=O)(=O)c4ccccc4)ccc32)CC1 [Example E4, 1-(1-Methyl-4-piperidinyl)-5-(phenylsulfonyl)-2,3-dihydro-1H-indole hydrochloride]
≤ 10 nM	O=S(=O)(c1ccccc1)c1ccc2c(c1)CCN2C1CCN2CCCC2C1 (centres unmarked) [Example E6, 1-(Octahydro-7-indolizinyl)-5-(phenylsulfonyl)-2,3-dihydro-1H-indole hydrochloride]
< 316 nM	CC1(N2CCc3cc(S(=O)(=O)c4ccccc4)ccc32)CCNCC1 [Example E7, 1-(4-Methyl-4-piperidinyl)-5-(phenylsulfonyl)-2,3-dihydro-1H-indole hydrochloride]
≤ 10 nM	O=S(=O)(c1ccc2c(c1)CCN2C1CCNCC1)c1ccccc1F [Example E9, 5-[(2-Fluorophenyl)sulfonyl]-1-(4-piperidinyl)-2,3-dihydro-1H-indole hydrochloride]
≤ 10 nM	O=S(=O)(c1cc(F)cc(F)c1)c1ccc2c(c1)CCN2C1CCNCC1 [Example E10, 5-[(3,5-Difluorophenyl)sulfonyl]-1-(4-piperidinyl)-2,3-dihydro-1H-indole hydrochloride]
≤ 10 nM	Cc1ccc(S(=O)(=O)c2ccc3c(c2)CCN3C2CCNCC2)cc1 [Example E11, 5-[(4-methylphenyl)sulfonyl]-1-(4-piperidinyl)-2,3-dihydro-1H-indole]
≤ 10 nM	O=S(=O)(c1ccc(Cl)cc1)c1ccc2c(c1)CCN2C1CCNCC1 [Example E13, 5-[(4-Chlorophenyl)sulfonyl]-1-(4-piperidinyl)-2,3-dihydro-1H-indole hydrochloride]
≤ 10 nM	O=S(=O)(c1ccccc1)c1ccc2c(c1)CCN2C1CCCNCC1 (centres unmarked) [Example E16a, 1-(Hexahydro-1H-azepin-4-yl)-5-(phenylsulfonyl)-2,3-dihydro-1H-indole]
≤ 10 nM	COc1cccc(S(=O)(=O)c2ccc3c(c2)CCN3C2CCNCC2)c1 [Example E23, 5-{[3-(Methyloxy)phenyl]sulfonyl}-1-(4-piperidinyl)-2,3-dihydro-1H-indole hydrochloride]
≤ 10 nM	Cc1cccc(S(=O)(=O)c2ccc3c(c2)CCN3C2CCNCC2)c1 [Example E26, 5-[(3-Methylphenyl)sulfonyl]-1-(4-piperidinyl)-2,3-dihydro-1H-indole hydrochloride]
≤ 10 nM	O=S(=O)(c1ccc2c(c1)CCN2C1CCNCC1)c1cc(F)ccc1F [Example E27, 5-[(2,5-Difluorophenyl)sulfonyl]-1-(4-piperidinyl)-2,3-dihydro-1H-indole hydrochloride]
≤ 10 nM	CCN1CCC(n2ccc3cc(S(=O)(=O)c4cccc(F)c4)ccc32)CC1 [Example E33, 1-(1-Ethyl-4-piperidinyl)-5-[(3-fluorophenyl)sulfonyl]-1H-indole hydrochloride]
≤ 10 nM	CC(C)N1CCC(N2CCc3cc(S(=O)(=O)c4ccccc4)ccc32)CC1 [Example E36, 1-[1-(1-Methylethyl)-4-piperidinyl]-5-(phenylsulfonyl)-2,3-dihydro-1H-indole]
≤ 10 nM	CC(C)CN1CCC(N2CCc3cc(S(=O)(=O)c4ccccc4)ccc32)CC1 [Example E37, 1-[1-(2-Methylpropyl)-4-piperidinyl]-5-(phenylsulfonyl)-2,3-dihydro-1H-indole hydrochloride]
